Measured values reported in a melting point compilation (Tetko et al.; mined from patent text by program, amines drawn as free bases though some values may be those of a salt).
Residues, ends and D or L forms follow the SMILES beside them. *: point of attachment. Cbz = O=C(OCc1ccccc1)*

Compound	melting point
COC(=O)C(CO)NC(=O)C(Cc1c[nH]c2ccccc12)NC(=O)OCc1ccccc1 (stereo not drawn) (Cbz-Trp-Ser-OMe; configuration not given here)	133 to 135 °C
CC(C)(C)OC(=O)N[C@@H](Cc1ccccc1)[C@@H](O)[C@@H](NCc1cccc2ccccc12)C(=O)O	225 to 227 °C
CC(C)SN(C)C(=O)Nc1ccc(Cl)c(Cl)c1	65 °C
Clc1ccc(C2=CCCC2)cc1	71 to 73 °C
O=C(O)CCc1ocnc1-c1ccccc1	142 to 143 °C
Cc1ccc2c(=O)[nH]c(N3CCN(CCO)CC3)cc2c1	236 to 237 °C
O=C(CCCC(Cl)c1ccc(Cl)cc1)Nc1ccccc1 (stereo not given)	99 to 102 °C
CC(=O)c1ccc2c(c1)Cc1ccc(C(C)=O)cc1-2	155 °C
O=C(O)c1cccc(-c2ncn(-c3ccc(-c4ccccc4)cc3)n2)c1	263 to 265 °C
Cc1nc(NC(=O)c2ccccc2)sc1C(=O)NCc1ccccc1C(F)(F)F	198 to 199 °C
O=C(Sc1ccccn1)c1ccccc1	48 to 50 °C
CCCCCc1ccc(-c2ccc(-c3nc(N)nc(N)n3)cc2)cc1	242 to 244 °C
Cc1ncnc(C)c1C(=O)N1CC2CN(CCC(NC(=O)C3CCCC3)c3ccccc3)CC2C1 (stereo not given)	48 to 49 °C
N#Cc1nn(-c2c(Cl)cc(C(F)(F)F)cc2Cl)c(N)c1-c1ccoc1	180 to 181 °C
Cc1c(O)ccc(Cl)c1N	143 to 144 °C
CCOC(=O)c1cc(O)cc(C(=O)OCC)c1	106 °C
COc1ccc2c(c1)CN(C=O)N=C2Cc1c(Cl)cncc1Cl	165 to 167 °C
O=C1CCc2ccc(OCCCCN3CCN(c4cccc5cc(Cl)ccc45)CC3)nc2N1	215 to 216 °C
O=c1cc2c(nn1-c1ccc(Cl)cc1)-c1cc(Cl)ccc1SCC2	215 to 217 °C
O=C(Cl)N1CC(Oc2cc(C(F)(F)F)ccc2Cl)C1	40 to 45 °C
CCOCCn1c(N2CCCN(CCC3(c4ccccn4)CCN(C(=O)c4cc(OC)c(OC)c(OC)c4)C3)CC2)nc2ccccc21 (stereo not given)	50 to 55 °C
Nc1nc2c(c(=O)[nH]1)CCc1ccccc1-2	> 300 °C
CCc1nc(C)c(C(=O)OC(C)OC(=O)C(C)(C)OC)n1Cc1ccc2oc(-c3ccccc3-c3nnn[nH]3)c(Br)c2c1 (stereo not given)	135 to 140 °C
CN(C)c1nc2cc(NC(=O)c3c(C(=O)N4CCOCC4)cnn3C)ccn2n1	196 to 198 °C
Cn1cc(C2=C(c3c4n(c5ccccc35)CCC4)C(=O)OC2=O)c2ccccc21	125 to 130 °C

Compound	melting point
COc1ccc(Cc2nc3n(c2-c2ccccc2)CCS3)cc1	273 to 274 °C
COc1ccc(C2=NN(C3CCN(C(=O)CN4C(=O)CCC4=O)CC3)C(=O)C(C)(C)C2)cc1OC	177 to 179 °C
CC1(C)SCc2ccccc2C1N=CNC#N (stereo not given)	164 to 166 °C
O=C(O)c1cccc(OCCF)c1OCCF	104 to 105 °C
CCCC(=O)c1cc2c(=O)c(C(=O)O)cn(CC)c2cc1C	208 to 209 °C
COc1cccc(C=O)c1Oc1ccc([N+](=O)[O-])cc1	130 to 131 °C
NC(=O)c1ccc2c(c1)S(=O)(=O)c1ccccc1C2=O	282 to 283 °C
O=C1Nc2ccccc2C1(c1ccc(O)cc1)c1ccc(O)cc1	267 °C
CC(C)OCCNC(=O)c1ccn2nc(-c3ccccc3)c(-c3ccc(=O)n(C(C)C)n3)c2c1	124 to 125 °C
COC(=O)CCCCCSc1ccc(-c2ccc(Cl)cc2)cc1	87 to 88 °C
COc1cccc(C#N)c1C	47 to 48 °C
CCOc1cc(CN2CCc3cc(O)ccc3C2)cc(OCC)c1OCC	140 to 142 °C
CSc1ccc(C(=O)C=Cc2ccncc2)cc1	133 to 134 °C
O=C(c1cccs1)c1cnn2c(-c3cccc([N+](=O)[O-])c3)ccnc12	199 to 201 °C
O=C(NCC1CC1)N1CC(Oc2ccc(C(F)(F)F)cc2)C1	132 to 133 °C
O=c1[nH]c2ncc(-c3ccc(-c4ncc[nH]4)cc3)nc2n1CCC1CCOCC1	293 to 295 °C
Sc1nc2cc3ccccc3cc2[nH]1	303 to 305 °C
CN(C)CCCOc1ccccc1CC(=O)O	98 °C
Cc1nc(OCC#N)c(C#N)c(N2CCc3ccccc3CC2)n1	68 to 74 °C
O=C(O)CCCCOc1ccc2nc3[nH]c(=O)[nH]c3cc2c1	317 to 318 °C
O=C(NC(Cc1ccc(OCc2ccccc2)cc1)C(=O)O)c1cn2cc(-c3ccccc3Cl)ccc2n1 (stereo not given)	228 °C
CC(=O)N1CCN=C1Nc1ccnn1-c1cccc(C(F)(F)F)c1	194 to 197 °C
CCOC(=O)c1cnc2c(F)c(F)ccc2c1	118 °C
CC(Oc1ccc(Oc2cnc3cc(F)ccc3n2)cc1)C(=O)Nc1ccc(OC(F)(F)F)cc1 (stereo not given)	140 to 142 °C
COC(=O)c1ccc(CC(C)NCC(O)c2ccc(O)c(NS(C)(=O)=O)c2)cc1 (stereo not given)	133 to 140 °C

Compound	melting point
COc1c(C)c(C)c(OC)c(CN2C(=O)[C@H]3CCC[C@H]3Nc3ccccc32)c1C (relative stereo)	175 to 176 °C
O=C1Nc2ccc(Cl)cc2C(C#CC2CC2)(C(F)(F)F)CN1C1CC1 (stereo not given)	195 to 196 °C
COc1ccc(C(=O)NCc2ccc3c(c2)C(=O)N(C2CCC(=O)NC2=O)C3=O)cc1 (stereo not given)	215 to 217 °C
CNc1nc(C)c(-c2cn3cc(Cl)ccc3n2)s1	242 to 243 °C
CC(=O)NCC1CN(c2cc(F)c(N3CCN(C(=O)OC(C)(C)C)CC3)c(F)c2)C(=O)O1 (stereo not given)	177 to 179 °C
CSc1sc(-c2nnc(C)o2)c2c1C(=O)CC(C)(C)C2	186 to 188 °C
CN1CC(CCCl)Oc2ccc(F)cc2C1=S (stereo not given)	135 to 137 °C
Cc1nc2ccccc2nc1S(=O)Cc1ccccn1 (stereo not given)	85 to 88 °C
CC(=O)NCC1CC(c2cc(F)c(-n3ccnc3)c(F)c2)=NO1 (single isomer, unassigned; (-))	168 to 169 °C
Cc1cc(S(=O)(=O)N(C)CC(O)(CO)c2cccc(Cl)n2)ccc1Cl (stereo not given)	131 to 132 °C
Cc1nnc2c3c(c(Cl)nn12)C1CCC3CC1	178 to 179 °C
CN1CCN(c2cccc(Oc3cc(=O)[nH]c4ccccc34)c2)CC1	218 to 221 °C
O=C(c1ccc(OCCN2CCCCC2)cc1)c1c(-c2ccc(O)cc2)ccc2ccccc12	167 to 170 °C
CSC1CC(c2cc(Cl)c(C)c(Cl)c2)=NNC1=O (stereo not given)	112 to 115 °C
O=C(O)c1ccccc1Nc1ccc(CCCCc2ccc(Cl)c(Cl)c2)cc1	98 to 105 °C
CC(C)(C)c1cc(CCc2ccccc2NC(=O)NC2CCN(Cc3ccccc3)CC2)cc(C(C)(C)C)c1O	79 to 81 °C
CC1COc2c(F)c(F)cc(C(=O)O)c2N1 (stereo not given)	200 to 202 °C
CC(=O)c1csc(-c2nc3n(c2-c2ccncc2)CCC3)c1	152 to 154 °C
O=Cc1cn(-c2cccnc2)c2ccccc12	148 to 150 °C
COc1ccc(CCOc2cncc(Cl)c2)cc1OC	101 to 102 °C
Cc1ccc(CCC(=O)c2c(O)c3cccnc3n(-c3ccccc3)c2=O)cc1	232 to 234 °C
CCCC(=O)c1c(C(C)(C)C)cc(C=[N+]([O-])C(C)(C)C)cc1C(C)(C)C	217 to 236 °C
O=C1CCc2ccc(OC/C=C/CN3CCN(c4cccc(Cl)c4Cl)CC3)cc2N1	151 to 152 °C
CN(Cc1nc(-c2cc(C(C)(C)C)c(O)c(C(C)(C)C)c2)cs1)c1ccc([N+](=O)[O-])cc1	199 to 201 °C
CC(C)NCC(O)COc1cccc2c1CCCC(=O)N2 (stereo not given)	143 to 145 °C

Compound	melting point
CCCCCCC(C)(C)c1cc(O)c2c(c1)oc(=O)c1ccc(O)cc12	103 to 108 °C
O=Cc1c(C2CC2)nc2ccccc2c1-c1ccc(F)cc1	152 °C
CCCCCCCCCCC(C)(C)C(=O)Nc1c(C)c(N)c(C)c2c1OC(C)(C)C2	125 °C
COc1cc(CN[C@@H](C(=O)N[C@H](C(=O)NCc2ccc(OC)cc2O)C(C)C)[C@H](O)[C@H](Cc2ccccc2)NC(=O)OC(C)(C)C)cc(OC)c1	138 °C
CSC1C(OC(C)=O)C(COC(C)=O)OC1n1ccc(=O)[nH]c1=O (stereo not given)	132 °C
Cc1cc(C(=O)c2ccccc2)c(OCCCCCCCCO)cc1N(C)C	56.9 °C
CCOCc1nc2c(N)nc(C)c(C)c2n1NCCCNS(C)(=O)=O	147 to 149 °C
COc1cc(OC)cc(S(=O)(=O)n2c(CCCC(=O)O)cc3nc(Cl)ccc32)c1	136 to 138 °C
O=C(O)c1ccc(-c2nc(-c3cc(C(F)(F)F)cc(C(F)(F)F)c3)co2)cc1	277 to 279 °C
CN1CC(CCC#N)Oc2ncccc2C1=S (stereo not given)	155 to 156 °C
CC(C)(C)c1cc(Cl)c(Cl)cc1[N+](=O)[O-]	80 °C
O=C(Cn1ccnc1[N+](=O)[O-])NCC(F)(F)C(F)(F)F	136 to 137 °C
CCOC(=O)/C(=C/c1coc2cc(OC)ccc2c1=O)Cc1cc2c(cc1OC)OCO2	140 to 141 °C
CC(=O)N[C@@H]1c2ccccc2C[C@@H]1C (relative stereo)	146 to 147 °C
CN1C(=O)SC(Cc2cn(-c3ccccc3)nc2OCc2ccccc2)C1=O (stereo not given)	115 to 116 °C
Cc1ncc2n1-c1ccc(Cl)cc1C(c1ccccc1)=[N+]([O-])C2	260 to 261 °C
Cc1nc(-c2ccc(Br)c(C)c2)no1	78 °C
c1ccc(CN(Cc2ccccc2)c2ccc3sccc3c2)cc1	114 to 117 °C
CN(C)C1(c2ccccc2)CCC2(OCCc3c2[nH]c2ccccc32)C(CCO)C1 (stereo not given)	311 to 314 °C
CCCc1ccc(-c2ccc(-c3ccc(O)cc3)nn2)cc1	220 to 223 °C
Cc1c(N)c(C)c(C(C)C)c2c1CC(C)(CI)O2 (stereo not given)	84 to 86 °C
Cc1cc(-c2ccccc2)nn1C(C)(C)C(=O)N(C)C	123 to 125 °C
O=C(c1ccc([N+](=O)[O-])cc1)N1Cc2ccccc2Sc2ccccc21	147 to 149 °C
O=C(Nc1nncs1)C(=O)c1cn(Cc2ccc(F)cc2)c2ccccc12	218 to 220 °C
COC(=O)CC1OCCN(CCc2c[nH]c3ccc(C)cc23)C1=O (stereo not given)	138 °C
